Data from US6525001B1, “Substituted pyrimidine and pyridine herbicides” (Mid-American Commercialization Corporation, priority 1997, dated 2003).

Legend:
Type in all cases: in vivo
[1] = system: Spanishneedles (Bidens bipinnata); test: Test E pre-/postemergence/post directed
Excerpt: (§1) Seeds, tubers, or plant parts of alexandergrass (Brachiaria plantaginea), annual bluegrass (Poa annua), arrowleaf sida (Sida rhombifolia), barnyardgrass (Echinochloa crus-galli), bermudagrass (Cynodon dactylon), citrus (Citrus sinensis), common chickweed (Stellaria media), common purslane (Portulaca oleracea), common ragweed (Ambrosia elatior), common groundsel (Senecio vulgaris), dallisgrass (Paspalum dilatatum), goosegrass (Eleusine indica), green foxtail (Setaria viridis), guineagrass (Panicum maximum), itchgrass (Rottboellia exaltata), johnson grass (Sorghum halepense), kochia (Kochia scoparia), large crabgrass (Digitaria sanguinalis), leafy spurge (Euphorbia esula), pitted morningglory (Ipomoea lacunosa), purple nutsedge (Cyperus rotundus), quackgrass (Agropyron repens), Russian thistle (Salsola kali), sandbur (Cenchrus echinatus), sourgrass (Trichachne insularis), Spanishneedles (Bidens bipinnata), sugarcane (Saccharum officinarum), surinam grass (Brachiaria decumbens) and tall mallow (Malva sylvestris) were planted into greenhouse pots of flats containing greenhouse planting medium. Plant species were grown grown in separate pots or individual compartments. Preemergence applications were made within one day of planting the seed or plant part. Postemergence applications were applied when the plants were in the two to four leaf stage (three to twenty cm).
(§2) Test chemicals were formulated in a non-phytotoxic solvent mixture which included a surfactant and applied preemergence to the soil surface, postemergence to the plants or as a post directed spray to plants and soil at the base of the target species. Untreated control plants and treated plants were placed in the greenhouse and visually evaluated for injury 13 to 21 days after herbicide application. Plant response ratings, summarized in Table E, are based on a 0 to 100 scale where 0 is no injury and 100 is complete control. A dash (−) response means no test result.

[2] = system: bermudagrass (Cynodon dactylon); test: Test E pre-/postemergence/post directed; details: PREEMERGENCE
Excerpt: as §1, §2

[3] = system: common ragweed (Ambrosia elatior); test: Test E pre-/postemergence/post directed
Excerpt: as §1, §2

[4] = system: itchgrass (Rottboellia exaltata); test: Test E pre-/postemergence/post directed
Excerpt: as §1, §2

[5] = system: large crabgrass (Digitaria sanguinalis); test: Test E pre-/postemergence/post directed
Excerpt: as §1, §2

[6] = system: sandbur (Cenchrus echinatus); test: Test E pre-/postemergence/post directed; details: PREEMERGENCE
Excerpt: as §1, §2

[7] = system: common ragweed (Ambrosia elatior); test: Test E pre-/postemergence/post directed; design: key: 0 is no effect; 100 is complete control; details: PREEMERGENCE, Rate 250 g/ha
Summary of the method: (§3)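 Greenhouse pot-grown plants; compound in non-phytotoxic solvent with surfactant applied preemergence to soil within one day of planting, postemergence at two to four leaf stage (three to twenty cm), or post-directed to plant base and soil. Visual injury rated 13 to 21 days after application, 0 (none) to 100 (complete control).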

[8] = system: dallisgrass (Paspalum dilatatum); test: Test E pre-/postemergence/post directed; design: key: 0 is no effect; 100 is complete control
Summary of the method: as §3

[9] = system: goosegrass (Eleusine indica); test: Test E pre-/postemergence/post directed; design: key: 0 is no effect; 100 is complete control
Summary of the method: as §3

[10] = system: guineagrass (Panicum maximum); test: Test E pre-/postemergence/post directed; design: key: 0 is no effect; 100 is complete control
Summary of the method: as §3

[11] = system: arrowleaf sida (Sida rhombifolia); test: Test C; design: key: 0 was no effect; 100 was complete control; details: PREEMERGENCE
[12] = system: barnyardgrass (Echinochloa crus-galli); test: Test C; design: key: 0 was no effect; 100 was complete control; details: PREEMERGENCE
[13] = system: cocklebur (Xanthium strumarium); test: Test C; design: key: 0 was no effect; 100 was complete control; details: PREEMERGENCE
[14] = system: common ragweed (Ambrosia elatior); test: Test C; details: PREEMERGENCE
[15] = system: fall panicum (Panicum dichotomiflorum); test: Test C; design: key: 0 was no effect; 100 was complete control; details: PREEMERGENCE
[16] = system: giant foxtail (Setaria faberii); test: Test C; design: key: 0 was no effect; 100 was complete control; details: PREEMERGENCE
[17] = system: ladysthumb smartweed (Polygonum persicaria); test: Test C; details: PREEMERGENCE
[18] = system: large crabgrass (Digitaria sanguinalis); test: Test C; design: key: 0 was no effect; 100 was complete control; details: PREEMERGENCE
[19] = system: redroot pigweed (Amaranthus retroflexus); test: Test C; design: key: 0 was no effect; 100 was complete control; details: PREEMERGENCE
[20] = system: velvetleaf (Abutilon theophrasti); test: Test C; details: PREEMERGENCE

## Cc1cnc(-n2cnc(C(F)(F)F)c2)nc1Cc1cccc(C(F)(F)F)c1 [Compound 44]
[1]; POSTEMERGENCE, Rate 125 g/ha
  Plant response rating, Spanishneedles: 10
[1]; POSTEMERGENCE, Rate 250 g/ha
  Plant response rating, Spanishneedles: 10
[1]; PREEMERGENCE, Rate 32 g/ha
  Plant response rating, Spanishneedles: 20
[1]; PREEMERGENCE, Rate 64 g/ha
  Plant response rating, Spanishneedles: 60
[1]; PREEMERGENCE, Rate 125 g/ha
  Plant response rating, Spanishneedles: 70
[1]; PREEMERGENCE, Rate 250 g/ha
  Plant response rating, Spanishneedles: 98
[2]; Rate 32 g/ha
  Plant response rating, Bermudagrass: 30
[2]; Rate 64 g/ha
  Plant response rating, Bermudagrass: 80
[2]; Rate 125 g/ha
  Plant response rating, Bermudagrass: 98
[3]; POSTEMERGENCE, Rate 125 g/ha
  Plant response rating, Com. ragweed: 10
[3]; POSTEMERGENCE, Rate 250 g/ha
  Plant response rating, Com. ragweed: 20
[3]; PREEMERGENCE, Rate 32 g/ha
  Plant response rating, Com. ragweed: 40
[3]; PREEMERGENCE, Rate 64 g/ha
  Plant response rating, Com. ragweed: 85
[3]; PREEMERGENCE, Rate 125 g/ha
  Plant response rating, Com. ragweed: 98
[4]; POSTEMERGENCE, Rate 125 g/ha
  Plant response rating, Itchgrass: 5
[4]; POSTEMERGENCE, Rate 250 g/ha
  Plant response rating, Itchgrass: 10
[4]; PREEMERGENCE, Rate 125 g/ha
  Plant response rating, Itchgrass: 30
[4]; PREEMERGENCE, Rate 250 g/ha
  Plant response rating, Itchgrass: 40
[5]; POSTEMERGENCE, Rate 125 g/ha
  Plant response rating, Large crabgrass: 10
[5]; POSTEMERGENCE, Rate 250 g/ha
  Plant response rating, Large crabgrass: 10
[5]; PREEMERGENCE, Rate 64 g/ha
  Plant response rating, Large crabgrass: 60
[5]; PREEMERGENCE, Rate 125 g/ha
  Plant response rating, Large crabgrass: 70
[5]; PREEMERGENCE, Rate 250 g/ha
  Plant response rating, Large crabgrass: 60
[6]; Rate 64 g/ha
  Plant response rating, Sandbur: 60
[6]; Rate 125 g/ha
  Plant response rating, Sandbur: 70
[6]; Rate 250 g/ha
  Plant response rating, Sandbur: 80
[7]
  Plant response rating, Com. ragweed: 100
[8]; POSTEMERGENCE, Rate 125 g/ha
  Plant response rating, Dallisgrass: 10
[8]; POSTEMERGENCE, Rate 250 g/ha
  Plant response rating, Dallisgrass: 10
[8]; PREEMERGENCE, Rate 32 g/ha
  Plant response rating, Dallisgrass: 65
[8]; PREEMERGENCE, Rate 64 g/ha
  Plant response rating, Dallisgrass: 80
[8]; PREEMERGENCE, Rate 125 g/ha
  Plant response rating, Dallisgrass: 90
[8]; PREEMERGENCE, Rate 250 g/ha
  Plant response rating, Dallisgrass: 100
[9]; POSTEMERGENCE, Rate 125 g/ha
  Plant response rating, Goosegrass: 10
[9]; POSTEMERGENCE, Rate 250 g/ha
  Plant response rating, Goosegrass: 20
[9]; PREEMERGENCE, Rate 32 g/ha
  Plant response rating, Goosegrass: 98
[9]; PREEMERGENCE, Rate 64 g/ha
  Plant response rating, Goosegrass: 98
[9]; PREEMERGENCE, Rate 125 g/ha
  Plant response rating, Goosegrass: 98
[9]; PREEMERGENCE, Rate 250 g/ha
  Plant response rating, Goosegrass: 100
[10]; POSTEMERGENCE, Rate 125 g/ha
  Plant response rating, Guineagrass: 85
[10]; POSTEMERGENCE, Rate 250 g/ha
  Plant response rating, Guineagrass: 85
[10]; PREEMERGENCE, Rate 32 g/ha
  Plant response rating, Guineagrass: 20
[10]; PREEMERGENCE, Rate 64 g/ha
  Plant response rating, Guineagrass: 80
[10]; PREEMERGENCE, Rate 125 g/ha
  Plant response rating, Guineagrass: 100
[10]; PREEMERGENCE, Rate 250 g/ha
  Plant response rating, Guineagrass: 100

## Cc1cnc(-n2ccc(C(F)(F)F)n2)nc1Cc1cccc(OC(F)(F)F)c1 [Compound 42]
[11]; Rate 35 g/ha
  Plant response rating, Arrowleaf sida: 95
[11]; Rate 70 g/ha
  Plant response rating, Arrowleaf sida: 95
[11]; Rate 140 g/ha
  Plant response rating, Arrowleaf sida: 100
[12]; Rate 35 g/ha
  Plant response rating, Barnyardgrass: 5
[12]; Rate 70 g/ha
  Plant response rating, Barnyardgrass: 10
[12]; Rate 140 g/ha
  Plant response rating, Barnyardgrass: 100
[13]; Rate 35 g/ha
  Plant response rating, Cocklebur: 0
[13]; Rate 140 g/ha
  Plant response rating, Cocklebur: 60
[14]; Rate 35 g/ha
  Plant response rating, Common ragweed: 20
[14]; Rate 70 g/ha
  Plant response rating, Common ragweed: 85
[14]; Rate 140 g/ha
  Plant response rating, Common ragweed: 85
[15]; Rate 35 g/ha
  Plant response rating, Fall panicum: 50
[15]; Rate 70 g/ha
  Plant response rating, Fall panicum: 85
[15]; Rate 140 g/ha
  Plant response rating, Fall panicum: 100
[16]; Rate 35 g/ha
  Plant response rating, Giant foxtail: 70
[16]; Rate 70 g/ha
  Plant response rating, Giant foxtail: 80
[16]; Rate 140 g/ha
  Plant response rating, Giant foxtail: 100
[17]; Rate 35 g/ha
  Plant response rating, Ladysthumb: 90
[17]; Rate 70 g/ha
  Plant response rating, Ladysthumb: 85
[17]; Rate 140 g/ha
  Plant response rating, Ladysthumb: 95
[18]; Rate 35 g/ha
  Plant response rating, Large crabgrass: 80
[18]; Rate 70 g/ha
  Plant response rating, Large crabgrass: 100
[18]; Rate 140 g/ha
  Plant response rating, Large crabgrass: 100
[19]; Rate 35 g/ha
  Plant response rating, Redroot pigweed: 100
[19]; Rate 70 g/ha
  Plant response rating, Redroot pigweed: 100
[19]; Rate 140 g/ha
  Plant response rating, Redroot pigweed: 100
[20]; Rate 35 g/ha
  Plant response rating, Velvetleaf: 40
[20]; Rate 70 g/ha
  Plant response rating, Velvetleaf: 80
[20]; Rate 140 g/ha
  Plant response rating, Velvetleaf: 95
[1]; PREEMERGENCE, Rate 32 g/ha
  Plant response rating, Spanishneedles: 20
[1]; PREEMERGENCE, Rate 64 g/ha
  Plant response rating, Spanishneedles: 20
[1]; PREEMERGENCE, Rate 250 g/ha
  Plant response rating, Spanishneedles: 90
[2]; Rate 32 g/ha
  Plant response rating, Bermudagrass: 90
[2]; Rate 64 g/ha
  Plant response rating, Bermudagrass: 95
[2]; Rate 125 g/ha
  Plant response rating, Bermudagrass: 98
[2]; Rate 250 g/ha
  Plant response rating, Bermudagrass: 98
[3]; PREEMERGENCE, Rate 32 g/ha
  Plant response rating, Com. ragweed: 50
[3]; PREEMERGENCE, Rate 64 g/ha
  Plant response rating, Com. ragweed: 75
[3]; PREEMERGENCE, Rate 125 g/ha
  Plant response rating, Com. ragweed: 90
[3]; PREEMERGENCE, Rate 250 g/ha
  Plant response rating, Com. ragweed: 90
[4]; PREEMERGENCE, Rate 32 g/ha
  Plant response rating, Itchgrass: 35
[4]; PREEMERGENCE, Rate 64 g/ha
  Plant response rating, Itchgrass: 65
[4]; PREEMERGENCE, Rate 125 g/ha
  Plant response rating, Itchgrass: 80
[4]; PREEMERGENCE, Rate 250 g/ha
  Plant response rating, Itchgrass: 70
[5]; PREEMERGENCE, Rate 32 g/ha
  Plant response rating, Large crabgrass: 50
[5]; PREEMERGENCE, Rate 64 g/ha
  Plant response rating, Large crabgrass: 90
[6]; Rate 64 g/ha
  Plant response rating, Sandbur: 40
[6]; Rate 125 g/ha
  Plant response rating, Sandbur: 70
[6]; Rate 250 g/ha
  Plant response rating, Sandbur: 70
[8]; PREEMERGENCE, Rate 32 g/ha
  Plant response rating, Dallisgrass: 70
[8]; PREEMERGENCE, Rate 64 g/ha
  Plant response rating, Dallisgrass: 95
[8]; PREEMERGENCE, Rate 125 g/ha
  Plant response rating, Dallisgrass: 100
[8]; PREEMERGENCE, Rate 250 g/ha
  Plant response rating, Dallisgrass: 100
[9]; PREEMERGENCE, Rate 32 g/ha
  Plant response rating, Goosegrass: 98
[9]; PREEMERGENCE, Rate 64 g/ha
  Plant response rating, Goosegrass: 100
[9]; PREEMERGENCE, Rate 125 g/ha
  Plant response rating, Goosegrass: 100
[9]; PREEMERGENCE, Rate 250 g/ha
  Plant response rating, Goosegrass: 100
[10]; PREEMERGENCE, Rate 32 g/ha
  Plant response rating, Guineagrass: 95
[10]; PREEMERGENCE, Rate 64 g/ha
  Plant response rating, Guineagrass: 95
[10]; PREEMERGENCE, Rate 125 g/ha
  Plant response rating, Guineagrass: 100
[10]; PREEMERGENCE, Rate 250 g/ha
  Plant response rating, Guineagrass: 100
